Key:
Test in all cases: relative viability (nuclei count vs DMSO), 5 days (fraction); higher = more cells survive
[1] = compound: OCc1c[nH]c2ccccc12 [Indole-3-carbinol] + CC(=O)Nc1cccc(-n2c(=O)n(C3CC3)c(=O)c3c(Nc4ccc(I)cc4F)n(C)c(=O)c(C)c32)c1 [Trametinib] (partner 0.02 µM)
Summary of the method: (§1)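 After 5 days of treatment, lung cancer cells in 1536-well plates were fixed and stained in a single step (final 0.05% Triton X-100, 1% formaldehyde, 1 ug/ml Hoechst) and their nuclei counted on 4× images. Treatment had been applied by pin tool the day after seeding as one drug alone or as a fixed anchor-drug dose with five library-drug doses (not always all listed) in √10 steps. Relative viability is the nuclei count of treated wells divided by that of vehicle wells, and values are medians of duplicate plates.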

[2] = compound: OCc1c[nH]c2ccccc12 [Indole-3-carbinol] + CC(=O)c1c(C)c2cnc(Nc3ccc(N4CCNCC4)cn3)nc2n(C2CCCC2)c1=O [Palbociclib] (partner 0.5 µM)
Summary of the method: as §1

[3] = compound: OCc1c[nH]c2ccccc12 [Indole-3-carbinol] + Cc1nc(Nc2ncc(C(=O)Nc3c(C)cccc3Cl)s2)cc(N2CCN(CCO)CC2)n1 [Dasatinib] (partner 0.075 µM)
Summary of the method: as §1

[4] = compound: OCc1c[nH]c2ccccc12 [Indole-3-carbinol] + NC(=O)Nc1cc(-c2cccc(F)c2)sc1C(=O)N[C@H]1CCCNC1 [AZD7762] (partner 0.2 µM)
Summary of the method: as §1

[5] = compound: OCc1c[nH]c2ccccc12 [Indole-3-carbinol] + Cc1cc(Nc2cc(N3CCN(C)CC3)nc(Sc3ccc(NC(=O)C4CC4)cc3)n2)n[nH]1 [Tozasertib] (partner 0.1 µM)
Summary of the method: as §1

Cell Line | relative viability ([1]; first compound 0.253 µM) | relative viability ([1]; first compound 0.8 µM) | relative viability ([1]; first compound 2.53 µM) | relative viability ([1]; first compound 8 µM) | relative viability ([2]; first compound 0.253 µM) | relative viability ([2]; first compound 0.8 µM) | relative viability ([2]; first compound 2.53 µM) | relative viability ([2]; first compound 8 µM) | relative viability ([3]; first compound 0.253 µM) | relative viability ([3]; first compound 0.8 µM) | relative viability ([3]; first compound 2.53 µM) | relative viability ([3]; first compound 8 µM) | relative viability ([4]; first compound 0.253 µM) | relative viability ([4]; first compound 0.8 µM) | relative viability ([4]; first compound 2.53 µM) | relative viability ([4]; first compound 8 µM) | relative viability ([5]; first compound 0.253 µM) | relative viability ([5]; first compound 0.8 µM) | relative viability ([5]; first compound 2.53 µM) | relative viability ([5]; first compound 8 µM)
LOU-NH91 | 0.81 | 0.747 | 0.788 | 0.802 | 0.492 | 0.547 | 0.535 | 0.497 | 0.621 | 0.573 | 0.585 | 0.535 | 0.791 | 0.703 | 0.77 | 0.755 | 0.65 | 0.693 | 0.749 | 0.634
ABC-1 |  |  |  |  | 0.681 | 0.807 | 0.794 | 0.735 | 0.47 | 0.596 | 0.456 | 0.591 | 0.72 | 0.974 | 0.618 | 0.833 | 0.186 | 0.214 | 0.164 | 0.158
NCI-H1651 | 0.819 | 0.787 | 0.823 | 0.822 | 0.53 | 0.521 | 0.524 | 0.495 | 0.412 | 0.387 | 0.443 | 0.368 | 0.448 | 0.441 | 0.438 | 0.437 | 0.723 | 0.922 | 0.834 | 0.614
HCC-44 | 1.05 | 1.13 | 1.09 | 1.04 | 0.954 | 1.03 | 0.902 | 0.882 |  |  |  |  | 1.03 | 1.03 | 1 | 0.967 | 0.97 | 0.575 | 1.11 | 0.922
SK-LU-1 | 0.637 | 0.453 | 0.469 | 0.582 | 0.404 | 0.36 | 0.383 | 0.372 | 0.194 | 0.211 | 0.178 | 0.208 |  |  |  |  | 0.303 | 0.356 | 0.367 | 0.302
NCI-H1703 |  |  |  |  |  |  |  |  |  |  |  |  | 0.155 |  | 0.113 | 0.103 |  |  |  | 
NCI-H2023 | 0.525 | 0.532 | 0.555 | 0.473 | 0.396 | 0.469 | 0.334 | 0.375 | 0.576 | 0.529 | 0.578 | 0.532 |  |  |  |  | 0.256 | 0.355 | 0.366 | 0.362
NCI-H661 | 0.526 | 0.564 | 0.606 | 0.58 | 0.426 | 0.412 | 0.447 | 0.444 | 0.961 | 0.827 | 0.819 | 0.917 |  |  |  |  | 0.335 | 0.334 | 0.359 | 0.348
COR-L 105 | 0.407 | 0.405 | 0.473 | 0.428 | 0.439 | 0.408 | 0.41 | 0.397 | 0.368 | 0.337 | 0.396 | 0.301 |  |  |  |  | 0.366 | 0.385 | 0.378 | 0.347
NCI-H2228 | 0.576 | 0.614 | 0.501 | 0.581 | 0.75 | 0.771 | 0.645 | 0.78 | 0.501 | 0.637 | 0.595 | 0.562 |  |  |  |  | 0.208 | 0.303 | 0.254 | 0.265
NCI-H596 | 0.779 | 0.829 | 0.809 | 0.762 |  |  |  |  | 0.649 | 0.665 | 0.659 | 0.595 | 1.06 | 1.07 | 1.11 | 1.06 | 0.803 | 1.04 | 0.784 | 0.896
NCI-H1650 | 0.565 | 0.563 | 0.561 | 0.498 | 0.376 | 0.341 | 0.338 | 0.351 | 0.335 |  | 0.324 | 0.304 |  |  |  |  | 0.371 |  | 0.364 | 0.473
NCI-H1792 | 0.436 | 0.369 | 0.432 | 0.379 | 0.74 | 0.634 | 0.675 | 0.697 | 0.823 | 1.05 | 0.845 | 0.737 | 0.734 | 0.786 | 0.901 | 0.77 |  |  |  | 
SK-MES-1 | 0.539 | 0.627 | 0.56 | 0.54 | 0.292 | 0.299 | 0.318 | 0.313 | 0.472 | 0.343 | 0.387 | 0.417 |  |  |  |  | 0.904 | 1.04 | 0.932 | 0.907
UMC-11 | 0.713 | 0.727 | 0.675 | 0.683 | 0.338 | 0.34 | 0.319 | 0.32 | 0.482 | 0.451 | 0.514 | 0.45 |  |  |  |  | 0.196 | 0.202 | 0.187 | 0.204
NCI-H1563 |  |  |  |  |  |  |  |  | 0.471 | 0.428 | 0.429 | 0.479 |  |  |  |  |  |  |  | 
COR-L23 | 0.619 | 0.557 | 0.703 | 0.549 | 0.323 | 0.245 | 0.308 | 0.237 | 0.505 | 0.571 | 0.586 | 0.542 |  |  |  |  | 0.201 | 0.243 | 0.296 | 0.185
SW 1573 | 0.512 | 0.605 | 0.534 | 0.564 | 0.377 | 0.41 | 0.449 | 0.37 | 0.553 | 0.653 | 0.666 | 0.407 |  |  |  |  | 0.187 | 0.233 | 0.135 | 0.176
